Experiments:
Assay type in all cases: binding
Wdyg1p = target: T1, Wdyg1p (Exophiala dermatitidis, UniProt Q6BCB5); assay: X-ray crystal structure
T1 construct: gene yg1; homodimer; N-domain residues 1-139, C-domain residues 144-393; active-site Ser256, His378; construct and host only in supplement

PlAntI = target: T2, PlAntI (Photorhabdus laumondii, UniProt Q7MZT8); assay: X-ray crystal structure; mass spectrometry; settings: covalent; Ser245 converted to dehydroalanine, inhibitor itself eliminated; 1.8 A
T2 construct: gene plu4186; crystallised enzyme; catalytic Ser245, His355, Asp326; construct and host only in supplement
T2 sequence (Q7MZT8 1-384): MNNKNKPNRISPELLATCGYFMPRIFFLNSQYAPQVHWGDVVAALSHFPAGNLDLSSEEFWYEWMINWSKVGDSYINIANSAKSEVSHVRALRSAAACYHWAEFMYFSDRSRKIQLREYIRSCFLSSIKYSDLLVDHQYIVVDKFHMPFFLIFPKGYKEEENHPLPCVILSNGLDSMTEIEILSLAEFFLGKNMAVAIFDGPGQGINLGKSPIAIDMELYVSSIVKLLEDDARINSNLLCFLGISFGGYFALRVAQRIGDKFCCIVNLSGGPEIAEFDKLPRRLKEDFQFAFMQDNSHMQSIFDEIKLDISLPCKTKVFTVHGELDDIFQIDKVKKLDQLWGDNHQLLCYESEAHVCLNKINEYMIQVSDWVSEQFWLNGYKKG

Afyg1p = target: T3, Afyg1p (Aspergillus fumigatus, UniProt Q4WZB3); assay: X-ray crystal structure; settings: reaction product in specificity pocket; 1.7 A
T3 construct: gene ayg1; homodimer; active-site Ser257, His380, Asp352; construct and host only in supplement
T3 sequence (Q4WZB3 2-406): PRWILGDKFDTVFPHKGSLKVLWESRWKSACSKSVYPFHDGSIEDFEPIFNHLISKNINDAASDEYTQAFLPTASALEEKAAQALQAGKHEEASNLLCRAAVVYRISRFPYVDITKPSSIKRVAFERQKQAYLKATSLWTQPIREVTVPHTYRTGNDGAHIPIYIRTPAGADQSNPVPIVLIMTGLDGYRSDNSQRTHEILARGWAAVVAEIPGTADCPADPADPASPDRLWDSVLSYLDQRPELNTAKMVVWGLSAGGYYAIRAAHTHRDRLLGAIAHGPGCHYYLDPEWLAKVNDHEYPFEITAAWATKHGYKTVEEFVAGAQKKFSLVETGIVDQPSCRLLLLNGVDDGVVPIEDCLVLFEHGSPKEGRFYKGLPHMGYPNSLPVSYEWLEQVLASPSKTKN

T1 sequence (Q6BCB5 entry or part of it): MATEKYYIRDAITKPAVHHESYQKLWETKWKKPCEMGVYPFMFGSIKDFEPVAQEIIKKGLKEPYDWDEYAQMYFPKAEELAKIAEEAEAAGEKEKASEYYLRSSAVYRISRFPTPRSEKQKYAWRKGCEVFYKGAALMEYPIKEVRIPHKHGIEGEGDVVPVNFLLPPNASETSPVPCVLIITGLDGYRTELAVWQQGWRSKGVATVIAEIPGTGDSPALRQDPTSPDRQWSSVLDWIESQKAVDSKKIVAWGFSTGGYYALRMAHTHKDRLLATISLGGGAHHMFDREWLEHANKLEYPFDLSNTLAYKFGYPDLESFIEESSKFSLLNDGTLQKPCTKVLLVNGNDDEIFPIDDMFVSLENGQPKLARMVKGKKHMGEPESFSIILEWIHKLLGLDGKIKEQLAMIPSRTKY

Compound	X-ray crystal structure (Wdyg1p; covalent, Ser256 converted to dehydroalanine, inhibitor itself eliminated, 1.85 A)	X-ray crystal structure; mass spectrometry (PlAntI)	X-ray crystal structure (Wdyg1p; reaction product in specificity pocket, 1.95 A)	X-ray crystal structure (Afyg1p)
O=S(=O)(F)c1ccccc1 [PSF, phenyl‐SF]	treatment of Wdyg1p with PMSF (*) or PSF (^#) leads to the β‐elimination mediated conversion	treatment of PlAntI with PMSF (*) or PSF (^#) appears to also introduce a DHA	–	–
Oc1cc(O)c2c(O)cc(O)cc2c1 [THN, 1,3,6,8‐tetrahydroxynaphthalene]	–	–	Wdyg1p crystal structure in complex with its product, THN (Wdyg1p:THN, PDB ID: 8QD9	the structure of Afyg1p in complex with its reaction product THN was analyzed
